≈ marks a conversion by molar mass, not a printed value.
What was measured:
[1] = tested on: Scrippsiella trochoidea; experiment: Growth inhibition of Scrippsiella trochoidea at 100 ug/ml after 12 hrs by light microscopy; type: functional
[2] = tested on: Staphylococcus aureus; experiment: Antimicrobial activity against Staphylococcus aureus after 24 hrs by agar diffusion method; type: functional
[3] = tested on: Heterosigma akashiwo; experiment: Growth inhibition of Heterosigma akashiwo at 100 ug/ml after 12 hrs by light microscopy; type: functional
[4] = tested on: Prorocentrum donghaiense; experiment: Growth inhibition of Prorocentrum donghaiense at 100 ug/ml after 12 hrs by light microscopy; type: functional
[5] = tested on: Chattonella marina; experiment: Growth inhibition of Chattonella marina at 100 ug/ml after 12 hrs by light microscopy; type: functional
[6] = Toxicity in Artemia salina assessed as lethality after 24 hrs
[7] = tested on: Colletotrichum gloeosporioides; experiment: Antimicrobial activity against Colletotrichum gloeosporioides after 24 hrs by agar diffusion method; type: functional
[8] = tested on: Colletotrichum lagenaria; experiment: Antimicrobial activity against Colletotrichum lagenarium after 24 hrs by agar diffusion method; type: functional
[9] = tested on: Escherichia coli; experiment: Antimicrobial activity against Escherichia coli after 24 hrs by agar diffusion method; type: functional

Compound	growth inhibition (GI) [1] [%]	MIC [2] [µg/mL]	growth inhibition (GI) [4] [%]	growth inhibition (GI) [5] [%]	further results
CCCC[C@@H](C)[C@@H]1[C@@H]2C=C[C@H]3[C@H](C)[C@@H](O)[C@@H](O)[C@@H]3[C@]1(C)OC2=O	-47.2	12.4 (≈ 38.5 µM)	14.1	37.2	inhibition of growth at 100 µg/mL ([3]; read-out: GI): 23.4%; LC50 at 24 h [6]: 65.6 µg/mL (≈ 203 µM)
C[C@@H]1[C@H](O)[C@@H](C)/C=C/C=C/C=C/C=C/C=C/C=C/C=C/[C@H](O[C@@H]2O[C@H](C)[C@@H](O)[C@H](N)[C@@H]2O)C[C@@H]2O[C@](O)(C[C@@H](O)C[C@@H](O)[C@H](O)CC[C@@H](O)C[C@@H](O)CC(=O)O[C@H]1C)C[C@H](O)[C@H]2C(=O)O [AMPHOTERICIN B]	–	–	–	–	MIC [7]: 12.4 µg/mL (≈ 13.4 µM); MIC [8]: 12.4 µg/mL (≈ 13.4 µM)
O=C(N[C@H](CO)[C@H](O)c1ccc([N+](=O)[O-])cc1)C(Cl)Cl [CHLORAMPHENICOL]	–	0.8 (≈ 2.48 µM)	–	–	MIC [9]: 1.6 µg/mL (≈ 4.95 µM)
POTASSIUM DICHROMATE [listing 1 of 2 here]	–	–	–	–	LC50 ([6]; 24 h): 20.8 µg/mL
POTASSIUM DICHROMATE [listing 2 of 2 here]	71.9	–	71.7	74.4	growth inhibition (GI) [3]: 78.4%

Source: ChEMBL document CHEMBL3853335, “Citrinovirin with a new norditerpene skeleton from the marine algicolous fungus Trichoderma citrinoviride” (Bioorg Med Chem Lett, 2016)
